According to patent US9771381B2, “Derivatives of 1-amino-2-cyclobutylethylboronic acid” (Millennium Pharmaceuticals, Inc., priority 2008, dated 2017):

Molecular target: T1, human 20S proteasome (Homo sapiens, UniProt P28074)
T1 construct: purchased Boston Biochem
Test: 20S Proteasome Assay
Format: biochemical
Conditions: Ac-WLA-AMC substrate 15 μM, human PA28 activator 12 nM, human 20S proteasome 0.25 nM, 37° C., pH7.4

## Cc1nc(-c2cccc(S(=O)(=O)N[C@@H](Cc3ccccc3)C(=O)N[C@@H](CC3CCC3)B(O)O)c2)cs1 [Compound 44, ((1R)-2-cyclobutyl-1-{[(2S)-2-({[3-(2-methyl-1,3-thiazol-4-yl)phenyl]sulfonyl}amino)-3-phenylpropanoyl]amino}ethyl)boronic acid]
  IC50: < 0.05 µM

## CC1(C)[C@@H]2C[C@H]3OB([C@H](CC4CCC4)NC(=O)[C@H](Cc4ccccc4)NC(=O)c4cccnc4Oc4ccccc4)O[C@@]3(C)[C@H]1C2 [Compound 9, N-[(1S)-1-benzyl-2-({(1R)-2-cyclobutyl-1-[(3aS,4S,6S,7aR)-3a,5,5-trimethylhexahydro-4,6-methano-1,3,2-benzodioxaborol-2-yl]ethyl}amino)-2-oxoethyl]-2-phenoxynicotinamide]
  IC50: < 0.05 µM

## CC1(C)[C@@H]2C[C@H]3OB([C@H](CC4CCC4)NC(=O)[C@H](Cc4ccccc4)NC(=O)c4cc(Cl)ccc4Cl)O[C@@]3(C)[C@H]1C2 [Compound 5, N-[(1S)-1-benzyl-2-({(1R)-2-cyclobutyl-1-[(3aS,4S,6S,7aR)-3a,5,5-trimethylhexahydro-4,6-methano-1,3,2-benzodioxaborol-2-yl]ethyl}amino)-2-oxoethyl]-2,5-dichlorobenzamide]
  IC50: < 0.05 µM

## O=C(N[C@@H](CC1CCC1)B(O)O)[C@H](Cc1ccccc1)NS(=O)(=O)c1ccc2ncsc2c1 [Compound 48, [(1R)-1-({(2S)-2-[(1,3-benzothiazol-6-ylsulfonyl)amino]-3-phenylpropanoyl}-amino)-2-cyclobutylethyl]boronic acid]
  IC50: < 0.05 µM

## CC1(C)[C@@H]2C[C@H]3OB([C@H](CC4CCC4)NC(=O)[C@H](Cc4ccccc4)NC(=O)c4cccnc4Nc4cccc(C(F)(F)F)c4)O[C@@]3(C)[C@H]1C2 [Compound 19, N-[(1S)-1-benzyl-2-({(1R)-2-cyclobutyl-1-[(3aS,4S,6S,7aR)-3a,5,5-trimethylhexahydro-4,6-methano-1,3,2-benzodioxaborol-2-yl]ethyl}amino)-2-oxoethyl]-2-{[3-(trifluoromethyl)phenyl]amino}nicotinamide]
  IC50: < 0.05 µM

## CC(=O)N[C@@H](CCc1ccccc1)C(=O)N[C@@H](Cc1ccccc1)C(=O)N[C@@H](CC1CCC1)B1O[C@@H]2C[C@@H]3C[C@@H](C3(C)C)[C@]2(C)O1 [Compound 16, (2S)-2-(acetylamino)-N-[(1S)-1-benzyl-2-({(1R)-2-cyclobutyl-1-[(3aS,4S,6S,7aR)-3a,5,5-trimethylhexahydro-4,6-methano-1,3,2-benzodioxaborol-2-yl]ethyl}amino)-2-oxoethyl]-4-phenylbutanamide]
  IC50: < 0.05 µM

## CC1(C)[C@@H]2C[C@H]3OB([C@H](CC4CCC4)NC(=O)[C@H](Cc4ccccc4)NC(=O)[C@H](CCc4ccccc4)NS(=O)(=O)Cc4ccccc4)O[C@@]3(C)[C@H]1C2 [Compound 21, (2S)-N-[(1S)-1-benzyl-2-({(1R)-2-cyclobutyl-1-[(3aS,4S,6S,7aR)-3a,5,5-trimethylhexahydro-4,6-methano-1,3,2-benzodioxaborol-2-yl]ethyl}amino)-2-oxoethyl]-2-[(benzylsulfonyl)amino]-4-phenylbutanamide]
  IC50: < 0.05 µM

## O=C(N[C@@H](CC1CCC1)B(O)O)[C@H](Cc1ccccc1)NS(=O)(=O)c1cccc2cnccc12 [Compound 47, [(1R)-2-cyclobutyl-1-({(2S)-2-[(isoquinolin-5-ylsulfonyl)amino]-3-phenylpropanoyl}amino)ethyl]boronic acid]
  IC50: 0.05 to 0.15 µM

## O=C(N[C@@H](Cc1ccccc1)C(=O)N[C@@H](CC1CCC1)B(O)O)c1ccc2nc(-c3ccccc3)[nH]c2c1 [Compound 18, {(1R)-2-cyclobutyl-1-[((2S)-3-phenyl-2-{[(2-phenyl-1H-benzimidazol-6-yl)carbonyl]amino}propanoyl)amino]ethyl}boronic acid]
  IC50: < 0.05 µM

## O=C(N[C@@H](Cc1ccccc1)C(=O)N[C@@H](CC1CCC1)B(O)O)c1cccnc1Nc1cccc(C(F)(F)F)c1 [Compound 23, {(1R)-2-cyclobutyl-1-[((2S)-3-phenyl-2-{[(2-{[3-(trifluoromethyl)phenyl]amino}pyridin-3-yl)carbonyl]amino}propanoyl)amino]ethyl}boronic acid]
  IC50: < 0.05 µM

## CC1(C)[C@@H]2C[C@H]3OB([C@H](CC4CCC4)NC(=O)[C@H](Cc4ccccc4)NC(=O)c4ccc5[nH]c(-c6ccccc6)nc5c4)O[C@@]3(C)[C@H]1C2 [Compound 14]
  IC50: < 0.05 µM

## O=C(N[C@@H](Cc1ccccc1)C(=O)N[C@@H](CC1CCC1)B(O)O)c1ccc(O)c(CN2CCOCC2)c1 [Compound 3, {(1R)-2-cyclobutyl-1-[((2S)-2-{[4-hydroxy-3-(morpholin-4-ylmethyl)benzoyl]amino}-3-phenylpropanoyl)amino]ethyl}boronic acid]
  IC50: < 0.05 µM

## Cn1ccc2c(S(=O)(=O)N[C@@H](Cc3ccccc3)C(=O)N[C@@H](CC3CCC3)B(O)O)cccc21 [Compound 30, {(1R)-2-cyclobutyl-1-[((2S)-2-{[(1-methyl-1H-indol-4-yl)sulfonyl]amino}-3-phenylpropanoyl)amino]ethyl}boronic acid]
  IC50: < 0.05 µM

## CC1(C)[C@@H]2C[C@H]3OB([C@H](CC4CCC4)NC(=O)[C@H](Cc4ccccc4)NC(=O)c4cccc(Oc5ccccc5)c4)O[C@@]3(C)[C@H]1C2 [Compound 13]
  IC50: < 0.05 µM

## O=C1COc2cc(S(=O)(=O)N[C@@H](Cc3ccccc3)C(=O)N[C@@H](CC3CCC3)B(O)O)c(Cl)cc2N1 [Compound 32, {(1R)-1-[((2S)-2-{[(6-chloro-3-oxo-3,4-dihydro-2H-1,4-benzoxazin-7-yl)sulfonyl]amino}-3-phenylpropanoyl)amino]-2-cyclobutylethyl}boronic acid]
  IC50: < 0.05 µM

## O=C(N[C@@H](Cc1ccccc1)C(=O)N[C@@H](CC1CCC1)B(O)O)c1cccc(Oc2ccccc2)c1 [Compound 7, [(1R)-2-cyclobutyl-1-({(2S)-2-[(3-phenoxybenzoyl)amino]-3-phenylpropanoyl}amino)ethyl]boronic acid]
  IC50: < 0.05 µM

## O=C(N[C@@H](CC1CCC1)B(O)O)[C@H](Cc1ccccc1)NC(=O)[C@H](CCc1ccccc1)NS(=O)(=O)Cc1ccccc1 [Compound 4, [(1R,4S,7S)-4-benzyl-1-(cyclobutylmethyl)-9,9-dioxido-3,6-dioxo-10-phenyl-7-(2-phenylethyl)-9-thia-2,5,8-triazadec-1-yl]boronic acid]
  IC50: < 0.05 µM

## O=C(N[C@@H](Cc1ccccc1)C(=O)N[C@@H](CC1CCC1)B(O)O)c1ccc(Oc2ccccc2)nc1 [Compound 39, {(1R)-2-cyclobutyl-1-[((2S)-2-{[(6-phenoxypyridin-3-yl)carbonyl]amino}-3-phenylpropanoyl)amino]ethyl}boronic acid]
  IC50: < 0.05 µM

## O=C(N[C@@H](CC1CCC1)B(O)O)[C@H](Cc1ccccc1)NS(=O)(=O)c1cccc(Oc2ccc(C(F)(F)F)cn2)c1 [Compound 34, {(1R)-2-cyclobutyl-1-[((2S)-3-phenyl-2-{[(3-{[5-(trifluoromethyl)pyridin-2-yl]oxy}phenyl)sulfonyl]amino}pro-panoyl)amino]ethyl}boronic acid]
  IC50: < 0.05 µM

## O=C(N[C@@H](CC1CCC1)B(O)O)[C@H](Cc1ccccc1)NS(=O)(=O)c1ccc(N2CCOCC2)nc1 [Compound 31, {(1R)-2-cyclobutyl-1-[((2S)-2-{[(6-morpholin-4-ylpyridin-3-yl)sulfonyl]amino}-3-phenylpropanoyl)amino]ethyl}boronic acid]
  IC50: < 0.05 µM
